Results taken from patent publication US20080207614A1, “QUINAZOLINE DERIVATIVES FOR THE TREATMENT AND PREVENTION OF DIABETES AND OBESITY” (SK CHEMICALS CO., LTD., priority 2004, published 2008).

Key:
[1] = tested on: C2C12 muscle cells; experiment: Analysis of glucose absorption (2-deoxyglucose) in differentiated C2C12 muscle cells; assay type: cell-based; conditions: test materials 10 μM, times relative to control group
In short: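 Uptake of 0.2 μCi 2-deoxyglucose over 20 min, counted radiometrically in lysed cells. Before tracer, compounds (10 μM) were applied for 30 min to C2C12 cells differentiated 6 days in 1% serum and equilibrated 3 h in 5 mM glucose KRB.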

[2] = tested on: AMPK; experiment: Measurement of AMPK activity by Western blot in C2C12 cells; assay type: cell-based; parameters: key to AMPK activity (degree of phosphorylation of serine-79 and threonine-172): fold increase in threonine-172 phosphorylation; AMPK activity (degree of phosphorylation of serine-79): unit not given here; conditions: 10 μM for 50 minutes; for AMPK activity (degree of phosphorylation of serine-79 and threonine-172): no superscript: Western blot of serine-79 and threonine-172 phosphorylation; for AMPK activity (class: degree of phosphorylation of threonine-172): strong/mild/weak; for AMPK activity (degree of phosphorylation of serine-79): footnote a: Western blot of serine-79 phosphorylation
Experimental: C2C12 cells were cultured and differentiated in the same manner as in Experimental Example 1. Treatment with the test materials was also performed in the same manner as in Experimental Example 1 (10 μM for 50 minutes). The culture medium was removed and the cells were washed for 2 times with PBS and protein extracts were obtained using a lysis buffer (50 mM tris-HCl, pH 7.4, 1% NP-40, 0.25% sodium deoxycholate, 150 mM NaCl, 1 mM EDTA, 1 mM PMSF, 1 mM sodium o-vanadate, 1 mM NaF, 1 μg/mL apronitin, 1 μg/mL leu-peptin, 1 μg/mL pepstatin). The AMPK activity was determined from Western blot analysis of the degree of phosphorylation of serine-79 […] acetyl CoA carboxylase and the degree of phosphorylation of threonine-172. The amount of ERK (extracellular signal regulated protein kinase) was confirmed by Western blot in order to quantify the proteins.
The result of Western blot analysis is given in Table 3 below, wherein “strong” means that the degree of phosphorylation of threonine-172 increased by 3 times or more, “mild” means that the degree of phosphorylation of threonine-172 increased by 1 to 3 times and “weak” means that the degree of phosphorylation of threonine-172 increased by less than 1 time.

Row | Compound | Glucose absorption [1] | AMPK activity (degree of phosphorylation of serine-79 and threonine-172) [2] | AMPK activity (class: degree of phosphorylation of threonine-172) [2] | AMPK activity (degree of phosphorylation of serine-79) [2]
1 | CC(C)c1nc(NCc2ccc3c(c2)OCO3)c2ccccc2n1 [Compound 182, Benzo[1,3]dioxol-5-ylmethyl-(2-isopropylquinazolino-4-yl)-amine] | 3.1 | 2.9 | strong (“strong” means that the degree of phosphorylation of threonine-172 increased by 3 times or more) | –
2 | c1ccc(CCNc2nc(C3CCCCC3)nc3ccccc23)cc1 [Compound 203, (2-Cyclohexylquinazolino-4-yl)-phenethylamine] | 2.0 | 3.9 | strong (“strong” means that the degree of phosphorylation of threonine-172 increased by 3 times or more) | –
3 | CC(C)(C)c1nc(NCCc2ccccc2)c2ccccc2n1 [Compound 191, (2-tert-Butylquinazolino-4-yl)-phenethylamine] | 2.4 | 5.2 | strong (“strong” means that the degree of phosphorylation of threonine-172 increased by 3 times or more) | –
4 | c1ccc(CCCCNc2nc(-c3ccccn3)nc3ccccc23)cc1 [Compound 228, (4-Phenylbutyl)-(2-pyridino-2-ylquinazolino-4-yl)-amine] | 2.1 | 7.9 | strong (“strong” means that the degree of phosphorylation of threonine-172 increased by 3 times or more) | –
5 | COc1cccc(CNc2ncnc3ccccc23)c1 [Compound 405, (3-Methoxybenzyl)-quinazolino-4-ylamine] | 2.2 | 2.7 | – | –
6 | COc1ccc(CNc2nc(C(C)C)nc3ccccc23)cc1OC [Compound 324, (3,4-Dimethoxybenzyl)-(2-isopropylquinazolino-4-yl)-amine] | 1.3 | 2.3 | – | –
7 | CCSc1nc(NC(C)C)c2ccccc2n1 [Compound 8, (2-Ethylsulfanylquinazolino-4-yl)-isopropylamine] | 1.2 | – | – | 3.0^a
8 | COc1cc(CNc2nc(C3CC3)nc3ccccc23)cc(OC)c1OC [Compound 389, (2-Cyclopropylquinazolino-4-yl)-(3,4,5-trimethoxybenzyl)-amine] | 1.3 | 2.2 | – | –
9 | C=CCNc1ncnc2cc(OCC)c(OCC)cc12 [Compound 16, Allyl-(6,7-diethoxyquinazolino-4-yl)-amine] | 1.3 | – | – | 3.1^a
10 | CCSc1nc(NCc2cccc(F)c2)c2ccccc2n1 [Compound 9, (2-Ethylsulfanylquinazolino-4-yl)-(3-fluorobenzyl)-amine] | 2.0 | – | – | 5.5^a
11 | Brc1ccc(CNc2nc(-c3ccccc3)nc3ccccc23)cc1 [Compound 148, (4-Bromobenzyl)-(2-phenylquinazolino-4-yl)-amine] | 2.1 | 1.7 | strong (“strong” means that the degree of phosphorylation of threonine-172 increased by 3 times or more) | –
12 | CCOc1cc2ncnc(NCc3ccc(Cl)cc3)c2cc1OCC [Compound 18, (4-Chlorobenzyl)-(6,7-diethoxyquinazolino-4-yl)-amine] | 1.0 | – | – | 6.0^a
13 | COc1ccc(CNc2nc(C(C)C)nc3ccccc23)c(OC)c1 [Compound 271, (2,4-Dimethoxybenzyl)-(2-isopropylquinazolino-4-yl)-amine] | 0.8 | 2.4 | – | –
14 | ClC(Cl)(Cl)c1nc(NC2CC2)c2ccccc2n1 [Compound 3, Cyclopropyl-(2-trichloromethylquinazolino-4-yl)-amine] | 1.2 | – | – | 3.3^a
15 | CCCNc1nc(-c2ccccc2)nc2ccccc12 [Compound 61, (2-Phenylquinazolino-4-yl)-propylamine] | 1.9 | – | weak (“weak” means that the degree of phosphorylation of threonine-172 increased by less than 1 time) | –
16 | COc1ccc(CNc2nc(C3CC3)nc3ccccc23)cc1 [Compound 384, (2-Cyclopropylquinazolino-4-yl)-(4-methoxybenzyl)-amine] | 1.2 | 2.0 | – | –

Row | Compound | Glucose absorption [1] | AMPK activity (degree of phosphorylation of serine-79 and threonine-172) [2] | AMPK activity (class: degree of phosphorylation of threonine-172) [2] | AMPK activity (degree of phosphorylation of serine-79) [2]
17 | c1ccc2c(NCc3ccc4c(c3)OCO4)nc(N3CCCCC3)nc2c1 [Compound 308, Benzo[1,3]dioxol-5-ylmethyl-(2-piperidino-1-ylquinazolino-4-yl)-amine] | 0.8 | 2.2 | – | –
18 | COc1ccc(OC)c(CNc2nc(N3CCCC3)nc3ccccc23)c1 [Compound 295, (2,5-Dimethoxybenzyl)-(2-pyrrolidino-1-ylquinazolino-4-yl)-amine] | – | 0.2 | – | –
19 | COc1ccccc1CNc1nc(-c2cccs2)nc2ccccc12 [Compound 349, (2-Methoxybenzyl)-(2-thiopenyl-2-ylquinazolino-4-yl)-amine] | – | 2.1 | – | –
20 | CC(C)c1nc(SCc2ccccc2)c2ccccc2n1 [Compound 416, 4-Benzylsulfanyl-2-isopropylquinazoline] | – | 0.7 | – | –
21 | COc1ccc(CNc2nc(C(OC)c3ccccc3)nc3ccccc23)cc1OC (centres unmarked) [Compound 366, (3,4-Dimethoxybenzyl)-[2-(methoxyphenylmethyl)-quinazolino-4-yl]-amine] | – | 1.6 | – | –
22 | COc1cc(CNc2nc(C(OC)c3ccccc3)nc3ccccc23)cc(OC)c1 (centres unmarked) [Compound 365, (3,5-Dimethoxybenzyl)-[2-(methoxyphenylmethyl)-quinazolino-4-yl]-amine] | – | 1.1 | – | –
23 | COc1cccc(CNc2nc(N3CCOCC3)nc3ccccc23)c1OC [Compound 289, (2,3-Dimethoxybenzyl)-(2-morpholino-4-ylquinazolino-4-yl)-amine] | – | 1.5 | – | –
24 | COc1ccccc1CNc1nc(N2CCN(C)CC2)nc2ccccc12 [Compound 278, (2-Methoxybenzyl)-[2-(4-methylpiperazino-1-yl)-quinazolino-4-yl]-amine] | – | 1.2 | – | –
25 | COc1cccc(CNc2nc(N3CCCC3)nc3ccccc23)c1 [Compound 279, (3-Methoxybenzyl)-(2-pyrrolidino-1-ylquinazolino-4-yl)-amine] | – | 1.3 | – | –
26 | CCCc1nc(NCc2cc(OC)ccc2OC)c2ccccc2n1 [Compound 402, (2,5-Dimethoxybenzyl)-(2-propylquinazolino-4-yl)-amine] | – | 0.5 | – | –
27 | CCCc1nc(NCc2ccc(OC)cc2OC)c2ccccc2n1 [Compound 401, (2,4-Dimethoxybenzyl)-(2-propylquinazolino-4-yl)-amine] | – | 1.4 | – | –
28 | CCOc1nc(NCc2ccc3c(c2)OCO3)c2ccccc2n1 [Compound 320, Benzo[1,3]dioxol-5-ylmethyl-(2-ethoxyquinazolino-4-yl)-amine] | – | 0.9 | – | –
29 | COc1cccc(CNc2nc(N3CCN(C)CC3)nc3ccccc23)c1 [Compound 282, (3-Methoxybenzyl)-[2-(4-methylpiperazino-1-yl)-quinazolino-4-yl]-amine] | – | 0.9 | – | –
30 | COc1ccc(CNc2nc(-c3cccs3)nc3ccccc23)c(OC)c1 [Compound 357, (2,4-Dimethoxybenzyl)-(2-thiopenyl-2-ylquinazolino-4-yl)-amine] | – | 0.7 | – | –
31 | COc1ccc(CNc2nc(-c3ccco3)nc3ccccc23)c(OC)c1 [Compound 346, (2,4-Dimethoxybenzyl)-(2-furano-2-ylquinazolino-4-yl)-amine] | – | 0.8 | – | –
